The test system of one data set is PD-L1 (B7-H1) mRNA. Put plainly: PD-L1 mRNA expression in MPM cells by real time PCR. To be noted: for PD-L1 mRNA: HDACi 48 h combined with decitabine 500 nM (72 h pretreatment); for PD-L1 expression: two additional MPM cell lines (Meso34 and Meso45), molecule alone.
The subject of the next data set is CD8 T-cell clones. Description: Cell viability (CellTiter-Glo) of CD8 T-cell clones treated with HDACi, with or without decitabine. The class given is cell-based, human. Set-up: AUC (Area Under the Curve) T-CD8 clones - 5-aza: unit not given beside the values. To be noted: for IC50: Homo sapiens, T-cell; for AUC (Area Under the Curve) T-CD8 clones + 5-aza 500nM / AUC (Area Under the Curve) T-CD8 clones - 5-aza: viability dose-response curve; for AUC (Area Under the Curve) T-CD8 clones + 5-aza 500nM: decitabine 500 nM pretreatment; for AUC (Area Under the Curve) T-CD8 clones - 5-aza: no decitabine.

The subject of data set [1] is natural killer cells (NK) (CD56+, CD16+). Description: Flow cytometry of natural killer cell proportion in treated lymphocytes. The class given is cell-based, human. Here is the method:
(§1) For flow cytometry experiments, lymphocytes were seeded at 4 × 10^5cells/well in a flat-bottomed 96-well plate in 180 μl RPMI 1640 8% HS. […]
(§2) The day of analysis, cells were stained in a conical-bottomed 96-well plate at 10^5 cells/well. The plate was centrifuged at 800×g for 1 min, and the pellets were washed using 200 μl/well of PBS containing BSA 0.1% (wash buffer). Antibodies (see Additional file 2: Table S2) were used at a dilution of 1/30 in the wash buffer, and then, the plate was incubated at 4 °C for 30 min. Later, two washings were performed using the wash buffer prior to flow cytometry analysis. All flow cytometry data were acquired with FACScalibur (BD biosciences) using the CellQuest software (BD Biosciences) and analyzed by FlowJo software.
(§3) The aim of our strategy is to induce an anti-tumor immune response to cure malignant pleural mesothelioma by using combinations of epigenetic drugs including HDACi. Therefore, it was necessary to study the effect of these HDACi on sub-populations of lymphocytes implicated in this immune response. […] Toxicity of the compounds was tested on natural killer cells (NK) (CD56+, CD16+), on regulatory T-cells (Treg) (CD4+, CD25+, CD127 low and Foxp3+), on CD4 and CD8 naïve T-cells (CD4+, CCR7+ and CD45RA+, and CD8+, CCR7+ and CD45RA+, respectively), and on CD4 and CD8 memory T cells (CD4+ and CD45RO+, and CD8+ and CD45RO+, respectively).

For data set [2] the following is noted: cited from earlier work.
For a further data set, the system named is lymphocytes. Put plainly: Cell viability (CellTiter-Glo) of lymphocytes treated with HDACi, with or without decitabine. More on the design: hematological toxicity: dose or concentration left out as unconfirmed; AUC (Area Under the Curve) Lymphocytes - 5-aza: unit not given beside the values. The conditions noted are these: for AUC (Area Under the Curve) Lymphocytes + 5-aza 500nM / AUC (Area Under the Curve) Lymphocytes - 5-aza: viability dose-response curve; for AUC (Area Under the Curve) Lymphocytes + 5-aza 500nM: decitabine 500 nM pretreatment; for AUC (Area Under the Curve) Lymphocytes - 5-aza: no decitabine.

Data set [3] concerns regulatory T-cells (Treg) (CD4+, CD25+, CD127 low and Foxp3+). Description: Flow cytometry of regulatory T cell proportion in treated lymphocytes. Type of data set: cell-based, human. To be noted: decitabine alone 500 nM, 72 h. Here is the method: as §1, §2, §3
In the next data set the test system is RIG-1 mRNA. Put plainly: RIG-1 mRNA expression in MPM cells by real time PCR. To be noted: decitabine alone.
The next data set deals with MDA5 mRNA. Description: MDA5 mRNA expression in MPM cells by real time PCR. The conditions noted are these: decitabine alone.

Read-outs that look alike come from different tables or passages of the source.

Protocol for CD8 T-cell clones: For dose-response experiments, lymphocytes were seeded at 4 × 10^5 cells/well in RPMI 1640 8% HS in flat-bottomed 96-well plates, and CD8 T-cell clones were seeded at 50 × 10^3 cells/well in 180 μl RPMI 1640 8% HS containing 150 IU IL-2. The treatments were carried out 24 h after seeding by adding decitabine at 500 nM for 72 h; then, HDACi treatments were performed for additional 48 h.
After treatments, cell viability was measured using CellTiter-Glo kit (Promega) according to the manufacturer’s protocol.
Protocol for MDA5 mRNA: (§4) All real-time PCR reactions were performed using the Mx3005P QPCR Systems (Stratagen Products, Agilent Technologies), and the amplifications were done using the SYBR Green PCR Master Mix SAB bioscience (Qiagen) mixed with Oligonucleotides QuantiTect Primer (Qiagen). The thermal cycling conditions were composed of 1 cycle at 95 °C for 10 min, 40 cycles at 95 °C for 30 s and 60 °C for 1 min, and 1 cycle at 95 °C for 1 min, 60 °C for 30 s, and 95 °C for 30 s. The experiments were carried out in duplicate for each data point. All the qPCR data were analyzed by MxPro software.
Protocol for PD-L1 (B7-H1) mRNA: as §4
Protocol for RIG-1 mRNA: as §4

For the compound `CCCC(CCC)C(=O)O` [VPA, valproic acid], the “PD-L1 mRNA” value with PD-L1 (B7-H1) mRNA (Meso96) was “significant increase”. For the same compound, in the data set with PD-L1 (B7-H1) mRNA, the PD-L1 expression entry was “increased”. In addition, the IC50 in the data set on CD8 T-cell clones (read-out: IC50 T-CD8 clones + Decitabine 500 nM, decitabine 500 nM 72 h pretreatment, then 48 h HDACi) came out at 20 µM. Besides, in the data set with CD8 T-cell clones (48 h HDACi, no decitabine pretreatment, read-out: IC50 T-CD8 clones − Decitabine), the 50% inhibitory concentration (IC50) was determined as 3800 ± 60 µM. In addition, in the data set on CD8 T-cell clones, the “AUC (Area Under the Curve) T-CD8 clones + 5-aza 500nM” value is 60.52 and the “AUC (Area Under the Curve) T-CD8 clones - 5-aza” value is 216.8. The “decrease of the proportion of NK cells” value in data set [1] (in comparison to untreated lymphocytes, 48 h, VPA 5 mM, SAHA 1 μM, ODB 32 μM, NODB 8 μM, ODH 4 μM, NODH 50 nM) is given as “more than 50%”. Besides, the “blood concentrations observed during treatments” value in data set [2] (patients, clinical trials) is given as “approximately 1 mM”. The hematological toxicity entry in the data set on lymphocytes ((blood concentration observed during treatments)) is on record as “weak hematological toxicity”. In the data set on lymphocytes, the “AUC (Area Under the Curve) Lymphocytes + 5-aza 500nM” value came to 208.5 and the “AUC (Area Under the Curve) Lymphocytes - 5-aza” value stood at 248.3.

As for `Nc1ncn([C@H]2C[C@H](O)[C@@H](CO)O2)c(=O)n1` [decitabine, 5-Aza-2′-deoxycytidine], in the data set with PD-L1 (B7-H1) mRNA (Meso96, decitabine alone 500 nM), the “mRNA expression of PD-L1” value was “did not affect”. Also, in the data set on PD-L1 (B7-H1) mRNA, the PD-L1 expression result is “increased”. Also, the “effect on NK proportion” value in data set [1] (decitabine alone 500 nM, 72 h) is reported as “reduced moderately”. Also, the “effect on Treg proportion” value in data set [3] is given as “reduced moderately”. Also, the “RIG-1 mRNA expression” value is on record as “increased significantly” in the data set with RIG-1 mRNA (Meso34), “increased significantly” in the data set on RIG-1 mRNA (Meso45) and “not” in the data set with RIG-1 mRNA (Meso96). For the same compound, the entries for the “MDA5 mRNA expression” value in the data set with MDA5 mRNA (Meso34), with MDA5 mRNA (Meso45) and with MDA5 mRNA (Meso96) were “increased significantly”, “increased significantly” and “not”, respectively.

In the case of `O=C(CCCCCCC(=O)Nc1ccccc1)NO` [SAHA, Suberoylanilide hydroxamic acid], the “PD-L1 mRNA” value with PD-L1 (B7-H1) mRNA (Meso96) is listed as “significant increase”. For the same compound, the PD-L1 expression result in the data set with PD-L1 (B7-H1) mRNA is reported as “increased”. Also, in the data set with CD8 T-cell clones, the “AUC (Area Under the Curve) T-CD8 clones + 5-aza 500nM” value is listed as 35.07 and the “AUC (Area Under the Curve) T-CD8 clones - 5-aza” value worked out at 112.2. Further, the “clinical doses measured in blood from patients” value in data set [2] is 1 to 4 µM. Also, the “blood concentrations reach in clinic” value in data set [2] (patients, clinical trials) is on record as “approximately 1 μM”. In addition, the “toxicity for lymphocytes and CD8 T-cells” value with lymphocytes (at clinical doses measured in blood from patients (approximately 1 to 4 μM)) is reported as “toxic”. Further, the cells survived result in the data set with lymphocytes (lymphocytes, highest dose of compound, in the presence or not of decitabine) is listed as “approximately 40%”. Moreover, in the data set with lymphocytes, the “AUC (Area Under the Curve) Lymphocytes + 5-aza 500nM” value turned out to be 183.9 and the “AUC (Area Under the Curve) Lymphocytes - 5-aza” value turned out to be 200.5.

These data come from article PMC6006850, “Assessment of new HDAC inhibitors for immunotherapy of malignant pleural mesothelioma” (Clinical Epigenetics, 2018).
